pEC50: −log10 of the molar value. Where two headings read alike, the source gives them in different places.
Test system: HBsAg
Experiment: HBsAg assay: inhibition of HBsAg in HepG2.2.15 cells (CLIA immunoassay of supernatant)
Assay type: cell-based, hepatitis B virus (HBV)
Details: supernatant collected at day 6 after exposure, HBsAg chemiluminescence immunoassay
Protocol: Inhibition of HBsAg was determined in HepG2.2.15 cells. Cells were maintained in culture medium containing 10% fetal calf serum, […], Glutamine, penicillin/streptomycin. Cells were seeded in 96-well collagen-coated plate at a density of 30,000 cells/well. Serially diluted compounds were added to cells next day at the final DMSO concentration of 0.5%. Cells were incubated with compounds for 2-3 days, after which medium was removed. Fresh medium containing compounds was added to cells for additional 3-4 days. At day 6 after exposure of compounds, supernatant was collected, the HBsAg immunoassay (microplate-based chemiluminescence immunoassay kits, CLIA, Autobio Diagnosics Co., Zhengzhou, China, Catalog #CL0310-2) was used to determine the level of HBsAg according to manufactory instruction. Dose-response curves were generated and the EC50 value (effective concentrations that achieved 50% inhibitory effect) were determined using XLfit software. In addition, cells can be seeded at a density of 5,000 cells/well for determination of cell viability in the presence and absence of compounds by using CellTiter-Glo reagent (Promega). Tables 1-3 show EC50 values obtained by the HBsAg assay for selected compounds.

[1] = read-out: sAg EC50, HepG2.2.15 cells
[2] = Hepatitis B virus, HepG2.2.15, 144 h, read-out: sAg EC50, HepG2.2.15 cells

COCCCOc1cc2c(nc1Cl)-c1[nH]c(=O)c(C(=O)O)c(O)c1C(C(C)(C)C)CO2 (single isomer, unassigned) [Example 78, 7-(tert-Butyl)-2-chloro-8-hydroxy-3-(3-methoxypropoxy)-10-oxo-6,7,10,11-tetrahydrooxepino[3,2-b:4,5-b′]dipyridine-9-carboxylicacid]
pEC50 [1]: 5.22

CCc1nc2c(cc1OCCCOC)OCC(C(C)(C)C)c1c-2[nH]c(=O)c(C(=O)O)c1O (single isomer, unassigned) [Example 80, 7-(tert-Butyl)-2-ethyl-8-hydroxy-3-(3-methoxypropoxy)-10-oxo-6,7,10,11-tetrahydrooxepino[3,2-b:4,5-b′]dipyridine-9-carboxylic acid]
pEC50 [1]: 5.15

CCc1nc2c(cc1OCCCOC)OCC(C(C)(C)C)c1c-2[nH]c(=O)c(C(=O)O)c1O (single isomer, unassigned) [Example 81, 7-(tert-Butyl)-2-ethyl-8-hydroxy-3-(3-methoxypropoxy)-10-oxo-6,7,10,11-tetrahydrooxepino[3,2-b:4,5-b′]dipyridine-9-carboxylic acid]
pEC50 [1]: 8.40

COCCCOc1cc2c(nc1C1CC1)-c1[nH]c(=O)c(C(=O)O)c(O)c1C(C(C)(C)C)CO2 (single isomer, unassigned) [Example 82, 7-(tert-Butyl)-2-cyclopropyl-8-hydroxy-3-(3-methoxypropoxy)-10-oxo-6,7,10,11-tetrahydrooxepino[3,2-b:4,5-b′]dipyridine-9-carboxylic acid]
pEC50 [1]: 4.52

COCCCOc1cc2c(nc1C1CC1)-c1[nH]c(=O)c(C(=O)O)c(O)c1C(C(C)(C)C)CO2 (single isomer, unassigned) [Example 83, 7-(tert-Butyl)-2-cyclopropyl-8-hydroxy-3-(3-methoxypropoxy)-10-oxo-6,7,10,11-tetrahydrooxepino[3,2-b:4,5-b′]dipyridine-9-carboxylic acid]
pEC50 [1]: 7.82

COCCCOc1cc2c(nc1OC)-c1[nH]c(=O)c(C(=O)O)c(O)c1C(C(C)(C)C)CO2 (single isomer, unassigned) [Example 85, 7-(tert-Butyl)-8-hydroxy-2-methoxy-3-(3-methoxypropoxy)-10-oxo-6,7,10,11-tetrahydrooxepino[3,2-b:4,5-b′]dipyridine-9-carboxylic acid]
pEC50 [1]: 7.18

COCCCOc1cc2c(nc1OC)-c1[nH]c(=O)c(C(=O)O)c(O)c1C(C(C)(C)C)CO2 (single isomer, unassigned) [Example 86, 7-(tert-Butyl)-8-hydroxy-2-methoxy-3-(3-methoxypropoxy)-10-oxo-6,7,10,11-tetrahydrooxepino[3,2-b:4,5-b′]dipyridine-9-carboxylic acid]
pEC50 [1]: 4.52

COCCCOc1cc2c(cc1OC)-c1[nH]c(=O)c(C(=O)O)cc1C(C)(C(C)C)C2 (centres unmarked) [Example 6, 5-Isopropyl-9-methoxy-8-(3-methoxypropoxy)-5-methyl-2-oxo-1,6-dihydrobenzo[h]quinoline-3-carboxylic acid]
pEC50 [2]: 7.36

COCCCOc1cc2c(cc1Cl)-c1[nH]c(=O)c(C(=O)O)cc1C(C)(C(C)C)C2 (centres unmarked) [Example 9, 9-Chloro-5-isopropyl-8-(3-methoxypropoxy)-5-methyl-2-oxo-1,6-dihydrobenzo[h]quinoline-3-carboxylic acid]
pEC50 [2]: 7.51

COCCCOc1cc2c(cc1OC)-c1nc(OC)c(C(=O)O)cc1C(C(C)C)C2 (centres unmarked) [Example 12, 5-Isopropyl-2,9-dimethoxy-8-(3-methoxypropoxy)-5,6-dihydrobenzo[h]quinoline-3-carboxylicacid]
pEC50 [2]: 5.92

COCCCOc1cc2c(cc1OC)-c1[nH]c(=O)c(C(=O)O)c(O)c1C(C(C)C)C2 (centres unmarked) [Example 13, 4-Hydroxy-5-isopropyl-9-methoxy-8-(3-methoxypropoxy)-2-oxo-1,2,5,6-tetrahydrobenzo[h]quinoline-3-carboxylicacid]
pEC50 [2]: 8.22

COCCCOc1cc2c(cc1Cl)-c1[nH]c(=O)c(C(=O)O)c(O)c1C(C)(C(C)C)C2 (centres unmarked) [Example 14, 9-Chloro-4-hydroxy-5-isopropyl-8-(3-methoxypropoxy)-5-methyl-2-oxo-1,2,5,6-tetrahydrobenzo[h]quinoline-3-carboxylic acid]
pEC50 [2]: 7.21

COCCCOc1cc2c(cc1OC)-c1[nH]c(=O)c(C(=O)O)c(F)c1C(C(C)C)C2 (centres unmarked) [Example 17, 4-Fluoro-5-isopropyl-9-methoxy-8-(3-methoxypropoxy)-2-oxo-1,2,5,6-tetrahydrobenzo[h]quinoline-3-carboxylic acid]
pEC50 [2]: 6.19

COCCCOc1cc2c(cc1OC)-c1c(c(O)c(C(=O)O)c(=O)n1Cc1ccccc1)C(C(C)C)C2 (centres unmarked) [Example 18, 1-Benzyl-4-hydroxy-5-isopropyl-9-methoxy-8-(3-methoxypropoxy)-2-oxo-1,2,5,6-tetrahydrobenzo[h]quinoline-3-carboxylic acid]
pEC50 [2]: 4.82

COCCCOc1cc2c(cc1OC)-c1nc(Cl)c(C(=O)O)c(O)c1C(C(C)C)C2 (centres unmarked) [Example 19, 2-Chloro-4-hydroxy-5-isopropyl-9-methoxy-8-(3-methoxypropoxy)-5,6-dihydrobenzo[h]quinoline-3-carboxylicacid]
pEC50 [2]: 5.10

COCCCOc1cc2c(cc1OC)-c1[nH]c(=O)c(C(=O)O)c(Cl)c1C(C(C)C)C2 (centres unmarked) [Example 20, 4-Chloro-5-isopropyl-9-methoxy-8-(3-methoxypropoxy)-2-oxo-1,2,5,6-tetrahydrobenzo[h]quinoline-3-carboxylic acid]
pEC50 [2]: 5.42

COCCCOc1cc2c(cc1OC)-c1nc(Cl)c(C(=O)O)c(Cl)c1C(C(C)C)C2 (centres unmarked) [Example 21, 2,4-Dichloro-5-isopropyl-9-methoxy-8-(3-methoxypropoxy)-5,6-dihydrobenzo[h]quinoline-3-carboxylic acid]
pEC50 [2]: 6.82

COCCCOc1cc2c(cc1OC)-c1[nH]c(=O)cc(O)c1C(C(C)C)C2 (centres unmarked) [Example 22, 4-Hydroxy-5-isopropyl-9-methoxy-8-(3-methoxypropoxy)-5,6-dihydrobenzo[h]quinolin-2(1H)-one]
pEC50 [2]: 6.47

COCCCOc1cc2c(cc1OC)-c1nc(Cl)c(C(=O)O)cc1C(C(C)C)C2 (centres unmarked) [Example 23, 2-Chloro-5-isopropyl-9-methoxy-8-(3-methoxypropoxy)-5,6-dihydrobenzo[h]quinoline-3-carboxylic acid]
pEC50 [2]: 6.62

COCCCOc1cc2c(nc1Cl)-c1c(cc(C(=O)O)c(=O)n1C)C(C(C)C)C2 (centres unmarked) [Example 25, 9-Chloro-5-isopropyl-8-(3-methoxypropoxy)-1-methyl-2-oxo-1,2,5,6-tetrahydro-1,10-phenanthroline-3-carboxylic acid]
pEC50 [2]: 7.03

COCCCOc1cc2c(nc1Cl)-c1[nH]c(=O)c(C(=O)O)c(O)c1C(C(C)C)C2 (centres unmarked) [Example 26, 9-Chloro-4-hydroxy-5-isopropyl-8-(3-methoxypropoxy)-2-oxo-1,2,5,6-tetrahydro-1,10-phenanthroline-3-carboxylic acid]
pEC50 [2]: 8.52

COCCCOc1cc2c(nc1Cl)-c1[nH]c(=O)c(C(=O)O)c(O)c1C(C(C)(C)C)C2 (centres unmarked) [Example 29, 5-(tert-Butyl)-9-chloro-4-hydroxy-8-(3-methoxypropoxy)-2-oxo-1,2,5,6-tetrahydro-1,10-phenanthroline-3-carboxylicacid]
pEC50 [2]: 9.00

COCCCOc1cc2c(cc1OC)-c1[nH]c(=O)c(C(=O)O)c(O)c1C(C)(C(C)C)C2 (centres unmarked) [Example 30, 4-Hydroxy-5-isopropyl-9-methoxy-8-(3-methoxypropoxy)-5-methyl-2-oxo-1,2,5,6-tetrahydrobenzo[h]quinoline-3-carboxylic acid]
pEC50 [2]: 7.24

COCCCOc1cc2c(nc1OC)-c1[nH]c(=O)c(C(=O)O)c(O)c1C(C(C)C)C2 (centres unmarked) [Example 33, 4-Hydroxy-5-isopropyl-9-methoxy-8-(3-methoxypropoxy)-2-oxo-1,2,5,6-tetrahydro-1,10-phenanthroline-3-carboxylic acid]
pEC50 [2]: 8.40

COCCCOc1cc2c(nc1OC)-c1[nH]c(=O)c(C(=O)O)c(O)c1C(C(C)(C)C)C2 (centres unmarked) [Example 36, 5-(tert-Butyl)-4-hydroxy-9-methoxy-8-(3-methoxypropoxy)-2-oxo-1,2,5,6-tetrahydro-1,10-phenanthroline-3-carboxylicacid]
pEC50 [2]: 9.00

CCOc1nc2c(cc1OCCCOC)CC(C(C)C)c1c-2[nH]c(=O)c(C(=O)O)c1O (centres unmarked) [Example 39, 9-Ethoxy-4-hydroxy-5-isopropyl-8-(3-methoxypropoxy)-2-oxo-1,2,5,6-tetrahydro-1,10-phenanthroline-3-carboxylicacid]
pEC50 [2]: 8.70

COCCCOc1cc2c(nc1OCC(F)F)-c1[nH]c(=O)c(C(=O)O)c(O)c1C(C(C)C)C2 (centres unmarked) [Example 42, 9-(2,2-Difluoroethoxy)-4-hydroxy-5-isopropyl-8-(3-methoxypropoxy)-2-oxo-1,2,5,6-tetrahydro-10-phenanthroline-3-carboxylic acid]
pEC50 [2]: 7.92

COCCCOc1cc2c(nc1OC)-c1[nH]c(=O)c(C(=O)O)cc1C(C(C)C)C2 (centres unmarked) [Example 43, 5-Isopropyl-9-methoxy-8-(3-methoxypropoxy)-2-oxo-1,2,5,6-tetrahydro-1,10-phenanthroline-3-carboxylic acid]
pEC50 [2]: 8.52

COCCCOc1cc2c(nc1OC)-c1[nH]c(=O)c(C(=O)O)cc1C(C(C)(C)C)C2 (centres unmarked) [Example 46, 5-(tert-Butyl)-9-methoxy-8-(3-methoxypropoxy)-2-oxo-1,2,5,6-tetrahydro-1,10-phenanthroline-3-carboxylicacid]
pEC50 [2]: 9.00
